This test concerns the target T1, GPR158 S266A mutant (Homo sapiens, UniProt Q5T848, S266A).
T1 construct: RGS7/Gβ5 co-expressed in the GAP BRET row only
T1 sequence (Q5T848 24-1215 S266A): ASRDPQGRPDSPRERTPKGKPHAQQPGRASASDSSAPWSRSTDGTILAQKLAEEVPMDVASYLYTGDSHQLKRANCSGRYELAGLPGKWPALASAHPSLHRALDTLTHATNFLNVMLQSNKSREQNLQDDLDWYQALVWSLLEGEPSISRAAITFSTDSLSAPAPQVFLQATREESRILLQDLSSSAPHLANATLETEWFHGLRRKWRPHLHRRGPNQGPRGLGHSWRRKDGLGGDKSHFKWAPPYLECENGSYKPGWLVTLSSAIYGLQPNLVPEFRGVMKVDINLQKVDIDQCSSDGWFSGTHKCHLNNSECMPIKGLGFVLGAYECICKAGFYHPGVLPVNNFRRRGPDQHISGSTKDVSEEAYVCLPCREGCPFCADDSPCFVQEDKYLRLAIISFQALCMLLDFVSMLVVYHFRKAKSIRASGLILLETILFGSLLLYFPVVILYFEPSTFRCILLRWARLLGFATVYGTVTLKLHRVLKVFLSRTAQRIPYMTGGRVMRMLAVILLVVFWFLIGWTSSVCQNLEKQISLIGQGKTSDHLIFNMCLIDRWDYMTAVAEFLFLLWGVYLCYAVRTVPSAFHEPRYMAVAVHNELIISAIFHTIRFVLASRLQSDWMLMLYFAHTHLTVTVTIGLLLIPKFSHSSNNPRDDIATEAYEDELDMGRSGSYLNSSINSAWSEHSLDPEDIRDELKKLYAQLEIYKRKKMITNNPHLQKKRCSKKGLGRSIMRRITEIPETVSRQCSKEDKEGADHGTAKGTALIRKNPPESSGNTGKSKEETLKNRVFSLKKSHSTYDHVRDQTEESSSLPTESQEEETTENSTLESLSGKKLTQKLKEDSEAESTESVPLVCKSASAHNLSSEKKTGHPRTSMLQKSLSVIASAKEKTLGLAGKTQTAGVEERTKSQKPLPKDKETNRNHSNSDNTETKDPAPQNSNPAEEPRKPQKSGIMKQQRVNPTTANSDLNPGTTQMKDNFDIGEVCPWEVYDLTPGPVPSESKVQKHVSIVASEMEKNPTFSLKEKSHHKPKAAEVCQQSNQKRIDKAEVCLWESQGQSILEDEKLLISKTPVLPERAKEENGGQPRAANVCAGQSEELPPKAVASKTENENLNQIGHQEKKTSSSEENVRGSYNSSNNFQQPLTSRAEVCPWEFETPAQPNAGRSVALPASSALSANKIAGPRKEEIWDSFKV
The test is described as follows: GAP BRET assay on GPR158 mutant S266A. The class given is cell-based. The text has this:
FIGS. 11A-11G. Probing Cache domain of GPR158 as a ligand binding site A) Computational docking of glycine into putative ligand binding pocket on GPR158 Cache domain. Glycine and directly interacting residues are shown as sticks. Hydrogen bonds and van der Waals interactions are shown as dotted lines. B) Diagram showing interactions in the docked model of glycine against GPR158 Cache domain. Hydrogen bonds are shown as dashed lines, van der Waals interactions are shown as intersecting semicircles, and the secondary structural context of Ser266 and Tyr269 is shown as an arc. Dagger indicates a residue implicated in glycine binding in 11A. […] Error bars are mean±s.e.m. of 3 independent experiments in triplicate. *p<0.05, **p<0.01, ***p<0.001, ****p<0.0001, ns=p>0.05, two-way ANOVA Columns with no fill (Ctrl), columns with angled-line fill (Glycine) E) Quantification of glycine inhibitory effect on kGAP normalized to the effect seen with WT receptor. […]
Cellular measurements of BRET between Venus-Gβ1γ2 and masGRK3ct-Nluc were performed to examine GAP activity of RGS protein in living cells (described in detail in Masuho et al., 2015 (40)). […] The BRET signal was determined by calculating the ratio of the light emitted by the Venus-Gβ1γ2 (535 nm with a 30 nm band path width) over the light emitted by the masGRK3ct-Nluc (475 nm with a 30 nm band path width). […]

Each structure is given as a SMILES string.

The results in this text go back to patent US20260376293A1, “METHODS FOR STUDYING GPR158 PHARMACOLOGY AND IDENTIFICATION OF ITS LIGANDS” (UNIVERSITY OF FLORIDA RESEARCH FOUNDATION, INCORPORATED, priority 2022, published 2026).

For `NCC(=O)O` [glycine], the “regulation of mutant activity by glycine” value is given as “unable to be regulated”.
